Tests used:
ACHN cells [1] = assay: real-time RT-PCR for stat1, stat2 genes; format: cell-based, human
RASSF1A promoter region = assay: methylation specific PCR of RASSF1A; format: cell-based, human; settings: ACHN cells
Procedure: One microgram of genomic DNA, harvested with a blood DNA mini kit (Quiagen, Valencia, Calif.), was used for bisulfite modification with the CpGenome kit (Chemicon International, Temecula, Calif.) according to the manufacturer's instructions with final resuspension in 20 μl of 10 mM Tris/Ci, pH 8.5. Four μl of bisulfite modified DNA was used per 25 μl MSP reaction. Primers for RASSF1A MSP as published (15) were (5′ to 3′): M forward: GGG TTT TGC GAG AGC GCG (SEQ ID NO:41), M reverse: GCC AAG CGC AAA CAA TCG (SEQ ID NO:42), U forward: GGT TIT GTG AGA GTG TGT TTA G (SEQ ID NO:43), U reverse: AAACCAAACACAAACAATCAC (SEQ ID NO:44). PCR settings for methylated (M) primer pair were denaturation at 95° C. for 5 min, followed by 35 cycles with a 1 min denaturation step, 30 sec annealing at 60° C., and extension at 72° C. for 30 sec. Final extension after 35 cycles was at 72° C. for 4 min. For sequences specific for unmethylated (U) DNA settings were the same except for annealing at 55° C.

ACHN cells [2] = assay: TUNEL flow cytometric analysis of apoptosis; format: cell-based, human; settings: for resistance to IFN-induced apoptosis after pretreatment: FIG. 2A; for apoptosis, agent alone: FIG. 2B
Procedure: After the indicated time of DNMT1 inhibition cells were plated at 5000 cells/cm^2 for TUNEL assay with IFNs added 16 hr after plating. Four to 5 days after IFN administration cells were harvested and processed according to the manufacturer's instructions for TUNEL flow cytometric analysis (BD Pharmingen, San Diego, Calif.).

caspase 3 = caspase 3 activity assay; format: cell-based, human; settings: FIG. 3; pretreatment alone
DNMT1 protein = target: T1, DNMT1 protein (Homo sapiens, UniProt P26358); assay: DNMT1 protein immunoblot after DNMT1 AS or 5-AZA-dC treatment; format: cell-based; settings: ACHN cells; 40 nM DNMT1 AS daily over 9 days or 200 nM 5-AZA-dC daily over 4 days; protein 4, 24, 48 hrs after last treatment
T1 construct: endogenous in cells; host or cells: ACHN renal cell carcinoma cells
Procedure: ACHN Renal cell carcinoma cells were cultured at 37° C. in 5% CO2 using Minimum Essential Medium (GIBCO, Invitrogen, Carlsbad, Calif.) with 0.1 mM non-essential amino acids (GIBCO), 1.0 mM pyruvate (GIBCO), 10% fetal bovine serum, penicillin G (50 U/ml), and streptomycin (50 μg/ml). WM9 melanoma cells (13) were grown in RPMI medium (GIBCO) containing 10% fetal bovine serum, penicillin G (50 U/ml), and streptomycin (50 μg/ml) under the same incubator conditions.
To selectively downregulate DNMT1, cells were transfected with MG98 (MethylGene, Quebec, Canada), a second-generation 4×4 2′methyl phosphorothioate oligonucleotide antisense against the 3′ UTR of DNMT1 mRNA (5′-[…]-3) or mismatch (underlined) control oligonucleotide (5′-[…]-3′) (SEQ ID NO:40) at indicated concentrations starting one day after plating at 15000 cells/cm^2. Transfections were performed daily with 6.25 μg/ml Lipofectin (Invitrogen, Carlsbad, Calif.) in OptiMem (GIBCO, Invitrogen, Carlsbad, Calif.) over 4 hr. Before and after transfections cells were washed once with PBS. Every second day cells were replated at 15000 cells/cm^2 four hr after the preceding transfection. 5-AZA-dC (Sigma-Aldrich, St Louis, Mo.) stock solution (100 mM) in DMSO and working solutions for one time use in PBS (1 mM) were stored at −20° C. […]

[3] = Phase I studies of MG98, toxicity
RASSF1A = assay: RT-PCR for RASSF1A; format: cell-based, human; settings: ACHN cells; data not shown
ACHN cells [4] = assay: growth of ACHN cells (data not shown); format: cell-based, human
tumour xenograft models = assay: tumour xenograft models; format: in vivo; settings: daily dosing compared to intermittent administration
ACHN cells [5] = assay: cDNA array analysis (Affymetrix U133A); format: cell-based, human
From the text: To identify additional genes reactivated through DNA demethylation and of potential importance for the sensitization to IFN-induced apoptosis we performed cDNA array analysis with RNA harvested from ACHN cells 24 hr after the 8th DNMT1 AS transfection and 16 hr after 50 U/ml IFN β 1a treatment. RNA was harvested as mentioned above using Trizol (Invitrogen, Carlsbad, Calif.) method followed by transcription into cRNA, according to Affymetrix (Santa Clara, Calif.) recommendations for U133A array hybridization. Expression was analyzed using Affymetrix software.

T1 sequence (P26358 whole entry): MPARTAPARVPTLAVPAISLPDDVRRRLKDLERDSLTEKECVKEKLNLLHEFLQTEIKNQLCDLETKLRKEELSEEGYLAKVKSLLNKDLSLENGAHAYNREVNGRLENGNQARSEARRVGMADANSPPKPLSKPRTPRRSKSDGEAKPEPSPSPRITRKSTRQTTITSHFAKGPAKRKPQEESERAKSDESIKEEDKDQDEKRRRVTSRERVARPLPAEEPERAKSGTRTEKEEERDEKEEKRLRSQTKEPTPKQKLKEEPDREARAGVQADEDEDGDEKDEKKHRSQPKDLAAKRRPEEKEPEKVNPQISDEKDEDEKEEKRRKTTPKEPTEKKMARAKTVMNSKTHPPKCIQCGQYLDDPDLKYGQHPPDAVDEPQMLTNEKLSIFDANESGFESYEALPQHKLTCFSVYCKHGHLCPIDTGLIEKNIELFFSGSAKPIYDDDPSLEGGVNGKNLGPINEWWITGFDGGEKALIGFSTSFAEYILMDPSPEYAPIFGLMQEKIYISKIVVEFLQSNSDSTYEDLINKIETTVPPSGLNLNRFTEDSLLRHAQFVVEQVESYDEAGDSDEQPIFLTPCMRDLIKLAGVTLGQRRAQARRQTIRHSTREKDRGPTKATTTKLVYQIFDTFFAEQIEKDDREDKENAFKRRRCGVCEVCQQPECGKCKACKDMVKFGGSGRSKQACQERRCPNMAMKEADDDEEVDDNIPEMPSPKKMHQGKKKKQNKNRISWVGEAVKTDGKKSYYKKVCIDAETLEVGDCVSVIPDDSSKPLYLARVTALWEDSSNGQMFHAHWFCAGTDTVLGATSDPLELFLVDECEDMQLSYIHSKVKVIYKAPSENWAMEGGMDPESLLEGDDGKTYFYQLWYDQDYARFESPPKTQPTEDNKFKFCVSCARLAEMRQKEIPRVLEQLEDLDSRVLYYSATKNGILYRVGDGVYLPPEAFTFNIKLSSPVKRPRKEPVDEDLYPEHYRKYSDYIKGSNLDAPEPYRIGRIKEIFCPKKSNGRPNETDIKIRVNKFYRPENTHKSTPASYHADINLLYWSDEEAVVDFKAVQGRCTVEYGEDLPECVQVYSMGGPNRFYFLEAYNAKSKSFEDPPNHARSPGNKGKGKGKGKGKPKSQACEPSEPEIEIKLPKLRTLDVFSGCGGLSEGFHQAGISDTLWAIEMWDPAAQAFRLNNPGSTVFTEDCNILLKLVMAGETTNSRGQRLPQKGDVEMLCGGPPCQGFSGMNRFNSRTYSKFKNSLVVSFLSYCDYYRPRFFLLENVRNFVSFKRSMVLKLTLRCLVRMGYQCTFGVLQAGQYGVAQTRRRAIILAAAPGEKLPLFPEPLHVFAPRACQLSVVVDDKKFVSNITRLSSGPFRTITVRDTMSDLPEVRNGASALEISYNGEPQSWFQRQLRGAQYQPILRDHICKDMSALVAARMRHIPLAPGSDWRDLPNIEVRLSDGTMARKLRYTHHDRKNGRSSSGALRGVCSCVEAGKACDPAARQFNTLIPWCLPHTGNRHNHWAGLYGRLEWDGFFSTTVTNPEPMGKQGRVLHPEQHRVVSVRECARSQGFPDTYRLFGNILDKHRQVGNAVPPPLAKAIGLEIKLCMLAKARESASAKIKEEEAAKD

Compound: 5′-UUCATGTCAGCCAAGGCCAC-3 (all phosphorothioate, sugars by position and methylation of C not given here; 2'-O-methyl gapmer) [MG98, second-generation 4×4 2′methyl phosphorothioate oligonucleotide antisense against the 3′ UTR of DNMT1 mRNA]
- stat1 expression, fold change over untreated (ACHN cells [1]): 0.27 fold
- stat2 expression, fold change over untreated (ACHN cells [1]): 1.05 fold
- methylation of RASSF1A promoter region (RASSF1A promoter region): led to demethylation
- resistance to IFN-induced apoptosis after pretreatment (ACHN cells [2]): overcome
- apoptosis, agent alone (ACHN cells [2]): did not result in significant apoptosis
- caspase 3 activity (caspase 3): increased caspase 3 activity
- DNMT1 protein (DNMT1 protein): suppressed up to 48 hrs
- dose levels resulting in frequent adverse events ([3]; Phase I, 21-day infusion): above 80 mg/m^2/day
- toxicity seen in nephrectomized patients ([3]; intermittent schedule, 160 mg/m^2/day is 44% below the dose concerned): grade 3 transaminitis
- amplification of full length RASSF1A cDNA (RASSF1A): single band
- growth (ACHN cells [4]): reduced
- anti-tumour activity (tumour xenograft models): greatest anti-tumour activity
- number of genes increased at least two-fold compared to the mismatch oligonucleotide (ACHN cells [5]; DNMT1 AS alone, data not shown): One hundred and thirty-seven
- expression of genes known to be involved in IFN-induced apoptosis (ACHN cells [5]; Table 2): not significantly altered
- reduction in DNMT1 expression (ACHN cells [5]; compared to mismatch oligonucleotide): 94%
- expression of other DNMTs (ACHN cells [5]; compared to mismatch oligonucleotide, data not shown): without affecting expression of other DNMTs
- increase of IFN-stimulated gene IF127 over MM treated cells (ACHN cells [5]; p<0.045): at least two-fold
- Fold change in expression, Caspase 4 (ACHN cells [5]; relative to MM): 1.41 (MI) fold
- Fold change in expression, HSXIAPAF1 (XAF1) (ACHN cells [5]; relative to MM): 3.36 (NS) fold
- Fold change in expression, IRF1 (ACHN cells [5]; relative to MM): 1.32 (NS) fold
- Fold change in expression, OAS1 (ACHN cells [5]; relative to MM): 0.80 (NS) fold
- Fold change in expression, PRKR (PKR) (ACHN cells [5]; relative to MM): 0.71 fold
- Fold change in expression, Stat1 (ACHN cells [5]; relative to MM): 0.60 fold
- Fold change in expression, Stat2 (ACHN cells [5]; relative to MM): 0.68 (NS) fold
- Fold change in expression, TNFSF10 (TRAIL/Apo2L) (ACHN cells [5]; relative to MM): 0.93 (NS) fold

Compound: Nc1ncn([C@H]2C[C@H](O)[C@@H](CO)O2)c(=O)n1 [5-AZA-dC, 5-aza-deoxycytidine, reference compound]
- stat1 expression, fold change over untreated (ACHN cells [1]): 0.57 fold
- stat2 expression, fold change over untreated (ACHN cells [1]): 1.38 fold
- resistance to IFN-induced apoptosis after pretreatment (ACHN cells [2]): overcome
- TUNEL positive (ACHN cells [2]; agent alone, no IFN, 5-AZA-dC 4 days): 20%
- caspase 3 activity (caspase 3): increased caspase 3 activity
- DNMT1 protein (DNMT1 protein): suppressed up to 48 hrs

Compound: 5′-TTAATGTAACCTAAGGTCAA-3′ (listed as DNA, chemistry not given here) [MM, mismatch control oligonucleotide]
- cells apoptotic on TUNEL staining (up to) (ACHN cells [2]; 5-AZA-dC over 24 days or oligonucleotide transfection over 6 to 8 days, then 50 U/ml IFN α or IFN β, 4-5 days after IFN): not
- resistance to IFN-induced apoptosis after pretreatment (ACHN cells [2]): did not
- apoptosis, agent alone (ACHN cells [2]): did not result in significant apoptosis
- amplification of full length RASSF1A cDNA (RASSF1A): no band

Source: patent publication US20060252723A1, “Combined therapy utilizing reduction of DNA methyltransferase expression and/or activity and interferon” (Methylgene, Inc. The Cleveland Clinic Foundation, priority 2005, published 2006)
